Assay results from paper PMC6751662, “Pharmacological and functional similarities of the human neuropeptide Y system in C. elegans challenges phylogenetic views on the FLP/NPR system” (Cell Communication and Signaling : CCS, 2019).

Legend:
NPR-11 = target: T1, NPR-11 (Caenorhabditis elegans, UniProt Q18179); assay: IP accumulation assay, chimeric GαΔ6qi4myr, NPR-11; assay type: cell-based, C. elegans; conditions: 1 h, HBSS + 20 mM LiCl, HEK293 receptor + GαΔ6qi4myr, HTRF IP-One
T1 construct: expressed in transfected cells; host or cells: HEK293, transient
T1 sequence (Q18179 1-402): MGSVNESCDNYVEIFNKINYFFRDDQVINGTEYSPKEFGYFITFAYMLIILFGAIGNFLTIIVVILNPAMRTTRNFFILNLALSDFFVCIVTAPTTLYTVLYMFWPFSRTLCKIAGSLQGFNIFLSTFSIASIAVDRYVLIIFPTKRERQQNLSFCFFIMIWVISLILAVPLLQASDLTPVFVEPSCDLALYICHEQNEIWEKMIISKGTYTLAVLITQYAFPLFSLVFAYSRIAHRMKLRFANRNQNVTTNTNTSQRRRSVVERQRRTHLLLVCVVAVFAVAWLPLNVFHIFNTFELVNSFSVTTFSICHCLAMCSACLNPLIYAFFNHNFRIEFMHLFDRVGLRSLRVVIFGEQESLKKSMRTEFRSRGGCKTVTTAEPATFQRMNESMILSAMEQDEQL
Protocol: (§1) For measuring IP accumulation, HEK293 cells grown to 70–80% confluency in 6-well plates were transiently co-transfected using Metafectene Pro (2.5 μl/μg DNA; Biontex) with plasmids containing receptor and/or mock (empty pcDNA3.1) (for endogenous Gq-coupling) using 4 μg total DNA in a ratio of 3:1 following the manufacturer’s instructions. For testing Gα16- and GαΔ6qi4myr-coupling, plasmids encoding the corresponding Gα protein were co-transfected instead of mock. Gα16 is naturally promiscuous and stimulates the phospholipase C (PLC) pathway leading to IP production, while the exchange of the C-terminal four amino acids of Gαq for the corresponding residues of Gαi1 in the chimeric GαΔ6qi4myr confers the ability to couple to Gi/o protein-preferring receptors but still stimulate PLC, thus specifically redirecting downstream cellular signaling. 16 h post transfection, the cells were seeded into white 384-well plates at a density of 20,000 cells/well. Media was removed 24 h later and the cells were incubated with the indicated concentration of peptides for 1 h in HBSS + 20 mM LiCl. IP accumulation was measured with the HTRF-based IP-One Gq kit (Cisbio) on a microplate reader (Tecan Spark).
(§2) For in vitro activation, data is presented as mean ± SEM of at least three independent experiments conducted in technical triplicate. […] For the C. elegans NPRs, we considered the strongest response elicited by any of the peptides downstream of a particular receptor as the receptor’s maximal signal. This may or may not be the biological maximum that can be reached by the ‘true’ endogenous agonist. For the human receptors, the response to the established endogenous agonist reflected the maximal signal.

NPR-6 [1] = assay: IP accumulation assay, chimeric GαΔ6qi4myr, NPR-6; assay type: cell-based, C. elegans; conditions: 1 h, HBSS + 20 mM LiCl, HEK293 receptor + GαΔ6qi4myr, HTRF IP-One
Protocol: as §1, §2

NPFF2R = target: T2, NPFF2R (Homo sapiens, UniProt Q9Y5X5); assay: cAMP reporter gene assay, Gi/o, NPFF2R; assay type: cell-based; conditions: for cAMP assay (Gi/o), NPFF2R: 4 h, lower = higher Gi/o activity, transfected HEK293, CRE-luciferase, mean of >=3 independent experiments; for Gi (Gs) [x-fold of forskolin], NPFF2R, mean: inhibition of cAMP production induced by 1 µM forskolin (set to 1.00), transiently transfected HEK293 cells, mean of at least three independent experiments
T2 construct: expressed in transfected cells; host or cells: HEK293, transient
T2 sequence (Q9Y5X5 103-522): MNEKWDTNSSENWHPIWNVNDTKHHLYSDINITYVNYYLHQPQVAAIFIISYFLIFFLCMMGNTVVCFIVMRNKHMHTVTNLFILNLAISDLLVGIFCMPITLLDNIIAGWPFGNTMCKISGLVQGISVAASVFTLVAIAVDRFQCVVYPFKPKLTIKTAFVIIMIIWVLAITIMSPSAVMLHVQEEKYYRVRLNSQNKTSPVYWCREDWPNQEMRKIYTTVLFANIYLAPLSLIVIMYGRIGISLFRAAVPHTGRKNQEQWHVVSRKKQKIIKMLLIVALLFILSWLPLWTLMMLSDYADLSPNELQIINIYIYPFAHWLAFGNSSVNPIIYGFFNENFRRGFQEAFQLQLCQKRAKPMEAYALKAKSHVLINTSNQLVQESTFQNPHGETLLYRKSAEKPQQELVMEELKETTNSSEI
Protocol: (§3) Activation of Gs and Gi/o was assessed with a cAMP reporter gene assay. HEK293 cells grown to 70–80% confluency in 6-well plates were transiently co-transfected with vectors encoding the receptor and the cAMP reporter gene plasmid pGL4.29 [luc2P/CRE/Hygro] (Promega; 4 μg total, 1:1 ratio) using Metafectene Pro (3 μl/μg DNA; Biontex) following the manufacturer’s instructions. 16 h post transfection, the cells were seeded into white 384-well plates at a density of 20,000 cells/well. On the next day, the medium was removed and the cells were stimulated with 20 μl of peptide solution (or forskolin as positive control) in serum-free DMEM for 4 h. For measuring Gi/o activity, the peptide solutions additionally contained 1 μM forskolin to elevate cellular cAMP levels. After incubation, the luciferase substrate OneGlo in lysis buffer (Promega) was added and the luminescence was measured in a microplate reader Tecan Spark (Tecan). Data were analyzed with GraphPad Prism 5.03 and are shown as fold of basal or fold of forskolin in case of Gαi/o activity.
as §2

NPR-3 = target: T3, NPR-3 (Caenorhabditis elegans, UniProt P90745); assay: cAMP reporter gene assay, Gs (no forskolin), NPR-3; assay type: cell-based, C. elegans; conditions: no forskolin, 4 h, transiently transfected HEK293, CRE-luciferase reporter, mean of >=3 independent experiments
T3 construct: expressed in transfected cells; host or cells: HEK293
T3 sequence (P90745 1-376): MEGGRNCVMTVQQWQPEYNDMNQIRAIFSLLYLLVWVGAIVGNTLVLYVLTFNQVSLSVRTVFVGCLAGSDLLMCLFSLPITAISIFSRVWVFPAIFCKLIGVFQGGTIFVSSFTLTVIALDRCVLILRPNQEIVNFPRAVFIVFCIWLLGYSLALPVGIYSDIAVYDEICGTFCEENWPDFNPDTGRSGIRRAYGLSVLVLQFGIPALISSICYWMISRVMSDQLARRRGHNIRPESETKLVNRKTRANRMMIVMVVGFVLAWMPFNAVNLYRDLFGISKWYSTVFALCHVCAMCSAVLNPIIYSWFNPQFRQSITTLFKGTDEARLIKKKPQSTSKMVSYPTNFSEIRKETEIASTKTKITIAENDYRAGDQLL
Protocol: as §3, §2

NPR-6 [2] = assay: IP accumulation assay, endogenous Gαq + mock, NPR-6; assay type: cell-based, C. elegans; conditions: 1 h, HBSS + 20 mM LiCl, HEK293 receptor + empty vector, HTRF IP-One, mean of >=3 independent experiments
Protocol: as §1
For in vitro activation, data is presented as mean ± SEM of at least three independent experiments conducted in technical triplicate. […]

NPR-4b = target: T4, NPR-4b (Caenorhabditis elegans, UniProt A0A078BTK0); assay: cAMP reporter gene assay, Gs (no forskolin), NPR-4b; assay type: cell-based, C. elegans; conditions: no forskolin, 4 h, transiently transfected HEK293, CRE-luciferase reporter, mean of >=3 independent experiments
T4 sequence (A0A078BTK0 1-376): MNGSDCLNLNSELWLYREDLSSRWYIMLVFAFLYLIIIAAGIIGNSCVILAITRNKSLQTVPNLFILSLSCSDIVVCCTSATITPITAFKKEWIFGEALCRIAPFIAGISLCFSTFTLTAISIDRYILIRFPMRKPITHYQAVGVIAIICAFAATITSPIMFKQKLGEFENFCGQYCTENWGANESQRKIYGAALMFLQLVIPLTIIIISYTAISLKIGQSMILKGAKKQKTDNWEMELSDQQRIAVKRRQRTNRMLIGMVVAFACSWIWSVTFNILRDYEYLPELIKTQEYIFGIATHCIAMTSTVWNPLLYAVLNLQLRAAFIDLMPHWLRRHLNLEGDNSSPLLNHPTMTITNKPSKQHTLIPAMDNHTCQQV
Protocol: as §3, §2

[3] = 0.1 µM peptide (Table S8), mean of >=3 independent experiments
[4] = 10 µM peptide, mean of >=3 independent experiments (Tables S5 and S8)
[5] = 0.1 µM peptide + 1 µM forskolin (set to 1.00)
[6] = 10 µM peptide + 1 µM forskolin (set to 1.00)
[7] = 0.1 nM peptide (Table S5), mean of >=3 independent experiments

Substance | IP accumulation with GαΔ6qi4myr, NPR-11 (NPR-11; [3]) | IP accumulation with GαΔ6qi4myr, NPR-11 (NPR-11; [4]) | IP accumulation with GαΔ6qi4myr, NPR-6 (NPR-6 [1]; [3]) | IP accumulation with GαΔ6qi4myr, NPR-6 (NPR-6 [1]; [4]) | also measured
ASPSFIRF-NH2 [FLP-4-2, C. elegans FMRFamide-like peptide, C-terminally amidated, synthesized by SPPS] | 1.03 x-fold of basal | 2.79 x-fold of basal | 0.96 x-fold of basal | 1.19 x-fold of basal | –
AGSDPNFLRF-NH2 [FLP-1-2, C. elegans FMRFamide-like peptide, C-terminally amidated, synthesized by SPPS] | 0.92 x-fold of basal | 6.48 x-fold of basal | 1.14 x-fold of basal | 5.19 x-fold of basal | –
NPENDTPFGTMRF-NH2 [FLP-3-4, C. elegans FMRFamide-like peptide, C-terminally amidated, synthesized by SPPS] | 0.92 x-fold of basal | 1.17 x-fold of basal | 1.04 x-fold of basal | 5.43 x-fold of basal | –
EASAFGDIIGELKGKGLGGRMRF-NH2 [FLP-27, NPY-like C. elegans FLP with C-terminal RxRF/Ya signature] | – | – | – | – | cAMP assay (Gi/o), NPFF2R (NPFF2R; [5]): 0.66 x-fold of forskolin; cAMP assay (Gi/o), NPFF2R (NPFF2R; [6]): 0.18 x-fold of forskolin
GLGPRPLAF-NH2 [[R8A]FLP-21, R8A control peptide of FLP-21, penultimate arginine exchanged for an alanine] | – | – | – | – | Gi (Gs) [x-fold of forskolin], NPFF2R, mean (NPFF2R; 0.1 µM peptide): 0.88 x-fold of forskolin; Gi (Gs) [x-fold of forskolin], NPFF2R, mean (NPFF2R; 10 µM peptide): 0.60 x-fold of forskolin
RGPSGPLAF-NH2 [[R8A]FLP-15-2] | – | – | – | – | Gi (Gs) [x-fold of forskolin], NPFF2R, mean (NPFF2R; 0.1 µM peptide): 0.94 x-fold of forskolin; Gi (Gs) [x-fold of forskolin], NPFF2R, mean (NPFF2R; 10 µM peptide): 0.97 x-fold of forskolin
APKPKFIRF-NH2 [FLP-5-1, C. elegans FMRFamide-like peptide, C-terminally amidated, synthesized by SPPS] | 1.03 x-fold of basal | 6.49 x-fold of basal | 0.96 x-fold of basal | 0.98 x-fold of basal | cAMP assay Gs, NPR-3 (NPR-3; 0.1 µM peptide): 0.86 x-fold of basal; cAMP assay Gs, NPR-3 (NPR-3; 10 µM peptide): 0.85 x-fold of basal; IP assay endog. Gαq + mock, NPR-6 (NPR-6 [2]; 0.1 nM peptide (so in the source)): 0.92 x-fold of basal; IP assay endog. Gαq + mock, NPR-6 (NPR-6 [2]; 10 µM peptide): 0.95 x-fold of basal; IP assay endog. Gαq + GαΔ6qi4myr, NPR-11 (NPR-11; [7]): 1.03 x-fold of basal; cAMP assay Gs, NPR-4b (NPR-4b; 0.1 µM peptide): 0.89 x-fold of basal; cAMP assay Gs, NPR-4b (NPR-4b; 10 µM peptide): 0.92 x-fold of basal; IP assay endog. Gαq + GαΔ6qi4myr, NPR-6 (NPR-6 [1]; [7]): 0.96 x-fold of basal
APLEGFEDMSGFLRTIDGIQKPRF-NH2 [FLP-33, NPY-like C. elegans FLP with C-terminal RxRF/Ya signature] | – | – | – | – | cAMP assay (Gi/o), NPFF2R (NPFF2R; [5]): 0.82 x-fold of forskolin; cAMP assay (Gi/o), NPFF2R (NPFF2R; [6]): 0.16 x-fold of forskolin
